Active and inactive are the calls of the source. The rule behind the calls is not given here.
System: THP-1
Test: Compound was tested in vitro for inhibition of [125I]RANTES binding to THP-1 cell membranes rich in C-C chemokine receptor type 1
Conditions: dose or concentration not given here

| Compound | inhibition |
| --- | --- |
| CN(C)S(=O)(=O)c1ccc2c(c1)N(CCCN1CCCCC1)c1ccccc1S2 | 38% |
| CN(C)S(=O)(=O)c1ccc2c(c1)N(CCN1CCC3(CC1)C(=O)NCN3c1ccccc1)c1ccccc1S2 | < 20% |

System: not listed separately
Test: Inhibition of [125I]RANTES binding to THP-1 cell membranes rich in C-C chemokine receptor types 1
Parameters: species or system Homo sapiens
Conditions: not given

| Compound | IC50 |
| --- | --- |
| O=C1NCN(c2ccccc2)C12CCN(CCCN1c3ccccc3Sc3ccc(Cl)cc31)CC2 | 7 µM |
| CC(=O)c1ccc2c(c1)N(CCCN1CCC3(CC1)C(=O)NCN3c1ccccc1)c1ccccc1S2 | 3 µM |
| CN(C)S(=O)(=O)c1ccc2c(c1)N(CCCN1CCC(Cc3ccccc3)CC1)c1ccccc1S2 | 7 µM |
| CN(CCCc1ccccc1)CCCN1c2ccccc2Sc2ccc(S(=O)(=O)N(C)C)cc21 | 4 µM |
| CN(C)S(=O)(=O)c1ccc2c(c1)N(CCCCN1CCC3(CC1)C(=O)NCN3c1ccccc1)c1ccccc1S2 | 10 µM |
| N#Cc1ccc2c(c1)N(CCCN1CCC3(CC1)C(=O)NCN3c1ccccc1)c1ccccc1S2 | 6 µM |
| COC(=O)c1ccc2c(c1)N(CCCN1CCC3(CC1)C(=O)NCN3c1ccccc1)c1ccccc1S2 | 4 µM |
| O=C1NCN(c2ccccc2)C12CCN(CCCN1c3ccccc3Sc3ccccc31)CC2 | 12 µM |
| CN(C)C(=O)c1ccc2c(c1)N(CCCN1CCC3(CC1)C(=O)NCN3c1ccccc1)c1ccccc1S2 | 5 µM |
| CN(C)S(=O)(=O)c1ccc2c(c1)N(CCCN1CCC(C3CCCCC3)CC1)c1ccccc1S2 | 2 µM |
| CN(C)S(=O)(=O)c1ccc2c(c1)N(CCCN1CCC3(CC1)C(=O)NCN3c1ccccc1)c1ccccc1S2 | 3 µM |
| CN(C)S(=O)(=O)c1ccc2c(c1)N(CCCN1CCC(c3ccccc3)CC1)c1ccccc1S2 | 4.5 µM |

Biological target: C-C chemokine receptor type 2 (Homo sapiens) (UniProt P41597)
Sequence (P41597 whole entry, looked up): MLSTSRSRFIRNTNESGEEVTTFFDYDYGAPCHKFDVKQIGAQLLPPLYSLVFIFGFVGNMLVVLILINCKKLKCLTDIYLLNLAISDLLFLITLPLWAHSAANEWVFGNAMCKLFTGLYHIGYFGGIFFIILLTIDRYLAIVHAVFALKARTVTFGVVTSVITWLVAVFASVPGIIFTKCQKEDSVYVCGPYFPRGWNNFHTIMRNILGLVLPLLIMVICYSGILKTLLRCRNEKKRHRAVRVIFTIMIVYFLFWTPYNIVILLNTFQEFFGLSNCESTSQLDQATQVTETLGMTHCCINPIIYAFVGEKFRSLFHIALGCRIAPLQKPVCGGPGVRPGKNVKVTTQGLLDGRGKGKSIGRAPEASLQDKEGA
Test: Tested for inhibition of [125I]-MCP-1 receptor binding to THP-1 cell membranes at concentrations up to 30 uM; NI means no inhibition
Conditions: not given

| Compound | inhibition |
| --- | --- |
| CN(C)S(=O)(=O)c1ccc2c(c1)N(CCCN1CCC3(CC1)C(=O)NCN3c1ccccc1)c1ccccc1S2 | inactive |

Source: ChEMBL document CHEMBL1130773, “Identification of a non peptidic RANTES antagonist” (Bioorg Med Chem Lett, 1998)
